1 molecule from US8058258B2, “Methods for cancer therapy and stem cell modulation” (Agency for Science, Technology and Research, priority 2006, dated 2011) can be followed below.

For assay [1], the system named is caspase 9, and poly(ADP-ribose) polymerase (PARP). Briefly: Western blot of caspase and PARP cleavage. Format: cell-based. As to conditions: 3-deazaneplanocin-treated cells (MCF-7, HCT116; 5 μM, 48 and 72 h). The procedure:
FIG. 3E depicts a Western blot analysis of the activation of caspases. MCF-7 and HCT16 cells were treated with 5 μM 3-deazaneplanocin (“DZNep”) for 48 and 72 h before analysis of whole-cell extracts. Activation of caspases and poly(ADP-ribose) polymerase (“PARP”) was detected after 3-deazaneplanocin treatment. β-Actin (“Actin”) was used as a loading control.
Cell pellets were first lysed in RadioImmuno Precipitation Assay (RIPA) buffer, consisting of an aqueous solution of 25 mM Tris-HCl pH 7.6, 150 mM NaCl, 1% Nonidet-P 40 (NP-40), 1% sodium deoxycholate and 0.1% sodium dodecylsulfate (SDS), before further sonicated using a tissue homogeniser to release all the proteins. Equal amounts of protein were separated on SDS-polyacrylamide gels and transferred to polyvinylidene difluoride (PVDF) membranes. The blots were probed with antibodies against: EED (07-368), SUZ12 (07-379), SUV39H1 (07-550), BMI1 (05-637), tri-methylated H3-K27 (07-449), tri-methylated H3-K9 (07-442) and Acetyl-Histone H3 (06-599), and were purchased from Upstate. EZH2 (AC22) and Histone H3 (3H1) were from Cell Signaling. Antibodies against DNA methyl-transferases DNMT1 and DNMT3B were purchased from Alexis Biochemicals. […]

The test system of another assay is Suv39h1. Description: Western blot of Suv39h1 protein levels. Format: cell-based, human. As to conditions: HCT116 or MCF-7 cells, 5 μM, 48 and 72 hours. The procedure: (§1) Cell lines used in these examples were purchased from the American Type Culture Collection (Manassas, Va.). Cells were maintained in DMEM supplemented with 10% fetal bovine serum with glutamine, penicillin, and streptomycin. For drug treatment, cells were seeded the day before the drug treatment. Cells were treated with 5 μM 3-Deazaneplanocin A or 2 μM 5-aza-2'-deoxycytidine (5-AzaC; Sigma) for 72 hours and trichostatin A (TSA; Sigma) at 100 nM for 24 hours. For co-treatment of cells with 5-AzaC and TSA, 5-Aza was added for 48 hours and followed by TSA for 24 hours. Cell pellets were first lysed in RadioImmuno Precipitation Assay (RIPA) buffer, consisting of an aqueous solution of 25 mM Tris-HCl pH 7.6, 150 mM NaCl, 1% Nonidet-P 40 (NP-40), 1% sodium deoxycholate and 0.1% sodium dodecylsulfate (SDS), before further sonicated using a tissue homogeniser to release all the proteins. Equal amounts of protein were separated on SDS-polyacrylamide gels and transferred to polyvinylidene difluoride (PVDF) membranes. The blots were probed with antibodies against: EED (07-368), SUZ12 (07-379), SUV39H1 (07-550), BMI1 (05-637), tri-methylated H3-K27 (07-449), tri-methylated H3-K9 (07-442) and Acetyl-Histone H3 (06-599), and were purchased from Upstate. EZH2 (AC22) and Histone H3 (3H1) were from Cell Signaling. […]

The test system of assay [2] is trimethylation of histone 3 at lysine 27 (H3-K27). Description: Western blot of histone H3 lysine 27 trimethylation. Format: cell-based, human. The settings on record: HCT116 or MCF-7 cells, 5 μM, 48 and 72 hours. The procedure: as §1
For a further assay, the system named is RKO cells. Description: Cell death by PI staining and flow cytometry. Format: cell-based. As to conditions: colorectal cancer RKO cells, 5 μM. The method, then: (§2) FIG. 3A depicts the detection of cell death of a variety of cancer cells upon exposure to 3-deazaneplanocin (DZNep) compared to untreated controls cells (DMSO=dimethyl sulfoxide). Breast cancer MCF-7 and MB-468 cells, colorectal HCT116, RKO and SW480 cells were treated with 5 μm 3-deazaneplanocin for 48 and 72 h, and cell death was detected by means of propodium iodide (PI) staining and flow cytometry analysis. Shown is the average of three independent experiments.
(§3) Cell lines used in these examples were purchased from the American Type Culture Collection (Manassas, Va.). Cells were maintained in DMEM supplemented with 10% fetal bovine serum with glutamine, penicillin, and streptomycin. For drug treatment, cells were seeded the day before the drug treatment. Cells were treated with 5 μM 3-Deazaneplanocin A or 2 μM 5-aza-2′-deoxycytidine (5-AzaC; Sigma) for 72 hours and trichostatin A (TSA; Sigma) at 100 nM for 24 hours. For co-treatment of cells with 5-AzaC and TSA, 5-Aza was added for 48 hours and followed by TSA for 24 hours.
(§4) Cells were trypsinised and washed with PBS and fixed in 70% ethanol and processed for propidium iodide staining and FACS analysis. For the caspase 3 activity assay and mitochondrial membrane potential detection, cells were stained with anti-active caspase 3 and JC-1, respectively, according to the manufacturer's instructions (BD Bioscience).
(§5) It was observed that 3-deazaneplanocin at 5 μM could induce 25% cell death at 48 hours and 45% of cell death at 72 hours, as determined by propodium iodide (PI) staining and flow cytometry analysis (FIG. 3A).

The test system of a further assay is SW480 cells. Description: Cell death by PI staining and flow cytometry. Format: cell-based. As to conditions: colorectal cancer SW480 cells, 5 μM. The procedure:
as §2, §3, §4, §5

The next assay relates to HCT116 cells. Briefly: Cell death by PI staining and flow cytometry. Format: cell-based. As to conditions: colorectal cancer HCT116 cells, 5 μM. The procedure: as §2, §3, §4, §5
Another assay relates to MCF-7 cells. Description: Microarray gene expression analysis (Illumina BeadChip) in MCF-7 cells. Format: cell-based, human.
In a further assay the test system is MB-468 cells. Description: Cell death / apoptosis by PI staining and flow cytometry. Format: cell-based, human. The procedure:
as §2
FIG. 6A depicts an analysis of the breast cancer cell lines MCF-7, MB-468, SK-BR-3, MB-231, T47D and BT549 for an apoptotic effect of 5 μM 3-deazaneplanocin over a time frame of 120 hours. Cell death was measured by FACS analysis. Data presented are the average of three independent experiments.
Cell lines used in these examples were purchased from the American Type Culture Collection (Manassas, Va.). Cells were maintained in DMEM supplemented with 10% fetal bovine serum with glutamine, penicillin, and streptomycin. For drug treatment, cells were seeded the day before the drug treatment. […]
It was observed that 3-deazaneplanocin at 5 μM could induce 25% cell death at 48 hours and 45% of cell death at 72 hours, as determined by propodium iodide (PI) staining and flow cytometry analysis (FIG. 3A). […]

SMILES strings stand for the structures.

Method for MCF-7 cells: The Smartpool siRNA duplexes of selected PRC2 targets and the non-targeting control were purchased from Dharmacon (Lafayett, Colo.). […] Cells were transfected with 50 nM final concentration of siRNA duplexes using Lipofectamine 2000 (Invitrogen) following the manufacturer's instructions.
Total RNA was isolated from cell lines using Trizol (Invitrogen) and was converted to cDNA using an RNA Amplification kit (Ambion). The microarray hybridisation was performed using the Illumina Gene Expression BeadChip (Illumina) and data analysis was performed using GeneSpring software from Agilent Technologies.
The effects on gene expression were analysed using an Illumina Gene Expression BeadChip. […] To be inclusive for the subsequent analysis, all 1402 genes were considered to be potential PRC2 target genes.
To identify the PRC2 targets specifically repressed in breast cancer cells, the expression profiles of the 140 putative PRC2 target genes in MCF-7 cells and MCF10A cells were compared by gene clustering analysis (FIG. 4C).

Regarding `Nc1nccc2c1ncn2C1C=C(CO)C(O)C1O` (stereo not shown) [3-deazaneplanocin, 5-(4-amino-1H-imidazo[4,5-c]pyridin-1-yl)-3-(hydroxymethyl)-3-cyclopentene-1,2-diol], the “cleavage of caspase 9, and poly(ADP-ribose) polymerase (PARP)” value in assay [1] is listed as “easily detectable”. Besides, the Suv39h1 protein levels entry in the assay with Suv39h1 is recorded as “not affected”. The “trimethylation of histone 3 at lysine 27 (H3-K27)” value in assay [2] is given as “strongly reduced”. Also, the cell death result with RKO cells is listed as “obvious cell death”; in the assay on SW480 cells, “obvious cell death”; in the assay with HCT116 cells, “obvious cell death”; with MB-468 cells (breast cancer MB-468 cells, 5 μM) it was “obvious cell death”. The “expression of the 47 PRC2 target genes repressed in MCF-7 relative to MCF10A” value in the assay with MCF-7 cells is “re-expression”. Also, the “number of genes upregulated ≧2-fold” value in the assay with MCF-7 cells (72 h) is reported as 750 genes. For the same molecule, the “sensitivity to 3-deazaneplanocin-induced cell death” value with MB-468 cells (MB-468, 5 μM, time course to 120 hours) was “highly susceptible”.
